{"source": "patent US20060046968A1", "about": "“Prodrug substituted benzoxazoles as estrogenic agents” (priority 2004, published 2006)", "type_in_all_cases": "in vivo", "key": {"[1]": {"test_system": "Sexually immature 129 SvE mice", "assay": "Mouse uterotrophic test procedure (Procedure 2)", "conditions": "compound 50 mg/kg s.c., days 22-25"}, "[2]": {"test_system": "Progesterone receptor mRNA", "assay": "Progesterone receptor mRNA regulation in the preoptic area of the rat brain", "conditions": "10 mg/kg"}, "[3]": {"test_system": "Sexually immature Sprague-Dawley rats", "assay": "Rat uterotrophic test procedure (Procedure 1)", "conditions": "compound 2 mg/rat + 17α-ethinyl, 17β-estradiol 0.06 μg/rat s.c. (antagonist mode)"}, "Male HLA-B27 rats [4]": {"test_system": "Male HLA-B27 rats", "assay": "HLA rat test for inflammatory bowel disease: stool character (3 = diarrhea; 2 = soft stool; 1 = normal stool)", "conditions": "Study B"}, "Male HLA-B27 rats [5]": {"test_system": "Male HLA-B27 rats", "assay": "HLA-B27 rat model of arthritis: joint scores", "conditions": "Study 2"}, "Male HLA-B27 rats [6]": {"test_system": "Male HLA-B27 rats", "assay": "HLA-B27 rat test for inflammatory bowel disease: histological scoring of colon", "conditions": "Study B; oral 4 weeks; 10 mg/kg days 1-14, then 20 mg/kg", "description": "Representative metabolites of compounds of the invention were evaluated in the HLA rat standard pharmacological test procedure, which emulates inflammatory bowel disease in humans. The following briefly describes the procedure used and results obtained. […] Louis) and water. Stool quality was observed daily and graded according to the following scale: Diarrhea=3; soft stool=2; normal stool=1. At the end of the study, serum was collected and stored at −70° C. A section of colon was prepared for histological analysis and an additional segment was analyzed for myeloperoxidase activity. In Study A, rats (22-26 weeks old) were dosed subcutaneously once per day for seven days with one of the regimens listed below. […] Histological analysis. Colonic tissue was immersed in 10% neutral buffered formalin. Each specimen of colon was separated into four samples for evaluation. The formalin-fixed tissues were processed in a Tissue-Tek® vaccum infiltration processor (Miles, Inc; West Haven, Conn.) for paraffin embedding. The samples were sectioned at 5 μm and then stained with hematoxylin and eosin (H&E) for blinded histological evaluations using a scale modified after Boughton-Smith. After the scores were completed, the samples were unblinded, and data were tabulated and analyzed by ANOVA linear modeling with multiple mean comparisons. Sections of colonic tissue were evaluated for several disease indicators and given relative scores."}, "[7]": {"conditions": "oral 20 mg/kg (10 mg/kg days 1-14), Day 16"}, "[8]": {"conditions": "oral 20 mg/kg (10 mg/kg days 1-14), Day 17"}, "[9]": {"conditions": "oral 20 mg/kg (10 mg/kg days 1-14), Day 19"}, "[10]": {"conditions": "oral 20 mg/kg (10 mg/kg days 1-14), Day 22"}, "[11]": {"conditions": "oral 20 mg/kg (10 mg/kg days 1-14), Day 23"}, "[12]": {"conditions": "oral 20 mg/kg (10 mg/kg days 1-14), Day 26"}}}
{"compound": "Oc1ccc(-c2nc3cc(O)ccc3o2)cc1", "note": "[Example 12, 2-(4-HYDROXYPHENYL)-1,3-BENZOXAZOL-5-OL]", "values": [{"measurement": "mean uterine weight ± SEM", "setting": "[1]", "result": "13.7 ± 0.82", "unit": "mg"}, {"measurement": "Progesterone receptor mRNA (mean ± stdev)", "setting": "[2]", "result": "256.2 ± 42.3", "unit": "arbitrary units"}, {"measurement": "mean uterine weight ± SEM", "setting": "[3]", "result": "60.2 ± 4.0", "unit": "mg"}]}
{"compound": "C=Cc1cc(O)cc2nc(-c3ccc(O)cc3F)oc12", "note": "[Example 25, 2-(2-FLUORO-4-HYDROXYPHENYL)-7-VINYL-1,3-BENZOXAZOL-5-OL]", "values": [{"measurement": "mean uterine weight ± SEM", "setting": "[1]", "result": "9.7 ± 1.0", "unit": "mg"}, {"measurement": "Progesterone receptor mRNA (mean ± stdev)", "setting": "[2]", "result": "447.0 ± 60.7", "unit": "arbitrary units"}, {"measurement": "Stool Character (group's average score)", "setting": "Male HLA-B27 rats [4]; oral 10 mg/kg, Day 1", "result": 1}, {"measurement": "Stool Character (group's average score)", "setting": "Male HLA-B27 rats [4]; oral 10 mg/kg, Day 2", "result": 1}, {"measurement": "Stool Character (group's average score)", "setting": "Male HLA-B27 rats [4]; oral 10 mg/kg, Day 3", "result": 1.25}, {"measurement": "Stool Character (group's average score)", "setting": "Male HLA-B27 rats [4]; oral 10 mg/kg, Day 4", "result": 1.25}, {"measurement": "Stool Character (group's average score)", "setting": "Male HLA-B27 rats [4]; oral 10 mg/kg, Day 5", "result": 1.75}, {"measurement": "Stool Character (group's average score)", "setting": "Male HLA-B27 rats [4]; oral 10 mg/kg, Day 6", "result": 1.5}, {"measurement": "Stool Character (group's average score)", "setting": "Male HLA-B27 rats [4]; oral 10 mg/kg, Day 9", "result": 1.75}, {"measurement": "Stool Character (group's average score)", "setting": "Male HLA-B27 rats [4]; oral 10 mg/kg, Day 10", "result": 1.5}, {"measurement": "Stool Character (group's average score)", "setting": "Male HLA-B27 rats [4]; oral 10 mg/kg, Day 12", "result": 1.75}, {"measurement": "Stool Character (group's average score)", "setting": "Male HLA-B27 rats [4]; oral 10 mg/kg, Day 13", "result": 2.25}, {"measurement": "Stool Character (group's average score)", "setting": "Male HLA-B27 rats [4]; [7]", "result": 1.5}, {"measurement": "Stool Character (group's average score)", "setting": "Male HLA-B27 rats [4]; [8]", "result": 1.5}, {"measurement": "Stool Character (group's average score)", "setting": "Male HLA-B27 rats [4]; oral 20 mg/kg (10 mg/kg days 1-14), Day 18", "result": 1.5}, {"measurement": "Stool Character (group's average score)", "setting": "Male HLA-B27 rats [4]; [9]", "result": 1.25}, {"measurement": "Stool Character (group's average score)", "setting": "Male HLA-B27 rats [4]; [10]", "result": 1.25}, {"measurement": "Stool Character (group's average score)", "setting": "Male HLA-B27 rats [4]; [11]", "result": 1.25}, {"measurement": "Stool Character (group's average score)", "setting": "Male HLA-B27 rats [4]; oral 20 mg/kg (10 mg/kg days 1-14), Day 24", "result": 1.25}, {"measurement": "Stool Character (group's average score)", "setting": "Male HLA-B27 rats [4]; oral 20 mg/kg (10 mg/kg days 1-14), Day 25", "result": 1.25}, {"measurement": "Stool Character (group's average score)", "setting": "Male HLA-B27 rats [4]; [12]", "result": 1.25}, {"measurement": "Joint inflammation score", "setting": "Male HLA-B27 rats [5]; oral 10 mg/kg, Day 1", "result": 0}, {"measurement": "Joint inflammation score", "setting": "Male HLA-B27 rats [5]; oral 10 mg/kg, Day 2", "result": 0}, {"measurement": "Joint inflammation score", "setting": "Male HLA-B27 rats [5]; oral 10 mg/kg, Day 3", "result": 0}, {"measurement": "Joint inflammation score", "setting": "Male HLA-B27 rats [5]; oral 10 mg/kg, Day 4", "result": 0}, {"measurement": "Joint inflammation score", "setting": "Male HLA-B27 rats [5]; oral 10 mg/kg, Day 5", "result": 0}, {"measurement": "Joint inflammation score", "setting": "Male HLA-B27 rats [5]; oral 10 mg/kg, Day 6", "result": 0}, {"measurement": "Joint inflammation score", "setting": "Male HLA-B27 rats [5]; oral 10 mg/kg, Day 7", "result": 0}, {"measurement": "Joint inflammation score", "setting": "Male HLA-B27 rats [5]; oral 10 mg/kg, Day 8", "result": 1}, {"measurement": "Joint inflammation score", "setting": "Male HLA-B27 rats [5]; oral 10 mg/kg, Day 10", "result": 2.25}, {"measurement": "Joint inflammation score", "setting": "Male HLA-B27 rats [5]; oral 10 mg/kg, Day 11", "result": 2.25}, {"measurement": "Joint inflammation score", "setting": "Male HLA-B27 rats [5]; oral 20 mg/kg (10 mg/kg days 1-14), Day 15", "result": 3.75}, {"measurement": "Joint inflammation score", "setting": "Male HLA-B27 rats [5]; [7]", "result": 3}, {"measurement": "Joint inflammation score", "setting": "Male HLA-B27 rats [5]; [8]", "result": 2.75}, {"measurement": "Joint inflammation score", "setting": "Male HLA-B27 rats [5]; [9]", "result": 1.5}, {"measurement": "Joint inflammation score", "setting": "Male HLA-B27 rats [5]; [10]", "result": 1.25}, {"measurement": "Joint inflammation score", "setting": "Male HLA-B27 rats [5]; [11]", "result": 2.5}, {"measurement": "Joint inflammation score", "setting": "Male HLA-B27 rats [5]; [12]", "result": 1.75}, {"measurement": "Fibrosis (0-2), mean ± SD", "setting": "Male HLA-B27 rats [6]", "result": "0.31 ± 0.13"}, {"measurement": "Inflammation (0-3), mean ± SD", "setting": "Male HLA-B27 rats [6]", "result": "1.50 ± 0.35"}, {"measurement": "Lesion depth (0-2), mean ± SD", "setting": "Male HLA-B27 rats [6]", "result": "0.44 ± 0.24"}, {"measurement": "Total score, mean ± SD", "setting": "Male HLA-B27 rats [6]", "result": "2.69 ± 0.52"}, {"measurement": "Ulceration (0-2), mean ± SD", "setting": "Male HLA-B27 rats [6]", "result": "0.44 ± 0.24"}]}
